Measured values reported in US9284369B2, “Inhibition of angiogenesis” (Genentech, Inc., priority 2007, dated 2016).

Tests used:
[1] = tested on: PKR2/EG-VEGFR2 expression; assay: Regulation of PKR2/EG-VEGFR2 expression in human bone marrow cells and neutrophils; format: cell-based
From the text: Taqman reagents for human PKR1/EG-VEGFR1 and PKR2/EG-VEGFR2 were obtained from Applied Biosystems.
(§1) Recombinant human MCP-1, MIP-1α, MIP-1β, MIP-2, bFGF, VEGF, GM-CSF, G-CSF, SDF-1α, M-CSF, Erythropoietin (EPO) and TNFα were purchased from R&D Systems (Minneapolis, Minn.). Recombinant human IL-8, IFNγ, Bv8 (Prokineticin-2), IL-4, IL-10, IL-13, TGF-β were from PeproTech Inc. (Rocky Hill, N.J.). SCF (Stem Cell factor) was from Invitrogen Biosource (Carlsbad, Calif.). In some cases, G-CSF from Amgen (Neupogen/Filgrastim) was used. All cytokines were used at 10 ng/ml. Freshly purified cells were washed and re-suspended in HBSS media containing 0.2% BSA (low endotoxin, Serologicals Corp. Norcross, Ga.). Two million cells were incubated in 24-well plates with various cytokines and chemokines for 4 hr at 37° C. in a 5% CO2 incubator. Cells were then transferred into eppendorf tubes, centrifuged and lysed with RNA lysis buffer (Qiagen, Valencia, Calif.). Bv8 expression was assessed by Taqman with RPL19 (Ribosomal Protein L19) as the internal control gene.

Bv8 expression [2] = assay: Bv8 expression in human leukemia cell lines; format: cell-based
Procedure: U937, HL-60, THP-1, Hel 92.1.7, KG-1, K562, Jurkat cells were obtained from the ATCC® (Manassas, Va.). Most cells were grown in 10% FBS-containing RPMI. KG-1 cells were grown in 20% FBS-containing Iscove's modified Dulbecco's medium. For THP-1 cells, 10% FBS-containing RPMI was used with Sodium Pyruvate, HEPES and β-mercaptoethanol. For regulation studies, 1 million cells with viability higher than 95% were used. Regulation studies were performed under both normoxia and hypoxia conditions for 4 hr in 1 ml HBSS media containing 0.2% BSA.

Bv8 expression [3] = assay: Regulation of Bv8 gene expression in cultured mouse BMMNCs (Taqman); format: cell-based; conditions: for up-regulation of Bv8 in unsorted BMMNCs: 10 ng/ml, 4 hr
Procedure: RNA from tissues or cells was prepared using the RNeasy Mini Kit® (Qiagen). 50 ng total RNA per reaction was used for the real time PCR (Taqman™) analysis. For mouse/human Bv8 and EG-VEGF/Bv8 receptor 1 (PKR-1/EG-VEGFR1, R-1), testis RNA (BD Biosciences) served as control. For mouse/human EG-VEGF/Bv8 receptor 2 (PKR-2/EG-VEGFR2, R2), hypothalamus or whole brain (BD Biosciences) served as the control tissues. Reactions were run on 9600 Emulation mode of 7500 Real […] time PCR system (Applied Biosystems) and the absolute quantification with standard curve was used with Sequence Detection System (SDS) software. The expression level of each gene was further quantified against the house-keeping gene RPL19 in the same sample. To confirm the expression of VEGFR-1, VEGFR-2, EG-VEGF/Bv8 R1 and EG-VEGF/Bv8 R2 in the tumor-associated endothelial cells, standard RT-PCR was conducted using the Titan One Tube™ RT-PCR system (Roche) and the end products were checked on 2% agarose gel (Invitrogen) for the correct size. The sequence of Taqman™ primers are as follows: […]
Recombinant mouse MCP-1, MIP-1α, MIP-1β, MIP-2, bFGF, VEGF, GM-CSF, G-CSF, SDF-1 and TNFα were purchased from R&D Systems (Minneapolis, Minn.). Recombinant mouse KC, IFNγ, Bv8 (Prokineticin-2), IL-4, IL-10, IL-13, TGF-β were from PeproTech Inc. (Rocky Hill, N.J.). […] Conditioned media at 1:3 dilution were used (final FBS concentration was 0.17%). Data were normalized against total cell number. BM cells were flushed from mouse leg bones with DMEM containing 10% FBS. Cells were centrifuged at 1200 rpm for 5 min and resuspended in HBSS media containing 0.2% BSA (low endotoxin, Serologicals Corp. Norcross, Ga.). Two million cells were incubated in 24-well plates with various cytokines for 4 hr at 37° C. in a 5% CO2 incubator. Cells were then transferred in eppendorf tubes, centrifuged and lysed by RNA lysis buffer (Qiagen, Valencia, Calif.). Bv8 expression was assessed by Taqman™ with RPL19 (Ribosomal Protein L19) as the internal control gene. In some cases, CD11b+Gr1+ or CD11b−Gr1− BM cells were obtained using FACS sorting.

Bv8 expression [4] = assay: Regulation of Bv8 gene expression in cultured human blood and bone marrow cells (Taqman); format: cell-based; conditions: for induction of Bv8 expression in human neutrophils and whole bone marrow cells / Bv8 expression in monocytes and lymphocytes: 10 ng/ml, 4 hr
Procedure: RNA was prepared using the RNeasy™ Mini Kit (Qiagen). 50 ng total RNA per reaction was used for the real time PCR (Taqman) analysis. For human Bv8, testis RNA (BD Biosciences) served as control. Reactions were run on 9600 Emulation mode of 7500 Real time PCR system (Applied Biosystems, Foster City, Calif.) and the absolute quantification with standard curve was used with Sequence Detection System (SDS) software. The expression level of each gene was further quantified relative to the housekeeping gene RPL19 in the same sample. The sequences of Taqman primers are as follows: Human Bv8 forward: ATG GCA CGG AAG CTA GGA (SEQ ID NO: 10), reverse: GCAGAGCTGAAGTCCTCTTGA (SEQ ID NO: 11), probe: TGCTGCTGGACCCTTCCTAAACCT (SEQ ID NO: 12); Human RPL19 forward: CGC AAG CGC CGT GAA (SEQ ID NO: 28), reverse: GGTCTCTTCCTCCTTGGATAAAGTC (SEQ ID NO: 29), probe: CCAGGCCAAGAAGGAGGAGATCATCA (SEQ ID NO: 30). Human specific VEGF forward: AAT GAC GAG GGC CTG GAG T (SEQ ID NO: 31), reverse: TTGATCCGCATAATCTGCATG (SEQ ID NO: 32), probe: TGTGCCCACTGAGGAGTCCAACATCA (SEQ ID NO: 33).
as §1

human neutrophils = assay: Chemotaxis of peripheral blood neutrophils; format: cell-based; conditions: for effect on neutrophil migration: all concentrations tested, data not shown
Procedure: 10^6 cells were washed with HBSS containing 0.2% BSA before putting into transwell insert with 5 μm pore size (Corning Incorporated, Lowell, Mass.). In the lower chamber, media alone or media with various cytokines at various concentrations (maximum at 200 ng/ml) was added. After 3 hr at 37° C., cells in the lower chamber were transferred, mixed with 9 ml ZPAK solution and counted on Z2 Coulter Particle Count and Size Analyzer (Beckman Coulter, Fullerton, Calif.).

p44/42 MAPK = assay: MAPK phosphorylation in TAECs (Western blot); format: cell-based, mouse
Procedure: TIB42-TAEC cells were starved for 6 hr in basal media supplemented with 0.5% BSA. Cells were then stimulated with human recombinant Bv8 (200 ng/ml; PeproTech), Complete Media (CM), VEGF (100 ng/ml; PeproTech) or BSA (0.5%). Cell extracts were collected at the indicated time-points. Western blot analysis of the extracts from TIB42-TAEC cells was performed using PhosphoPlus p44/42 MAPK™ antibody kit (Cell signaling).

TIB42-TAEC cells = assay: In vitro tube formation of tumor-associated endothelial cells; format: cell-based, mouse; conditions: Bv8 200 ng/ml, VEGF-A 100 ng/ml, 36 hours
Procedure: Tumor associated endothelial cells (TAECs) were isolated using a magnetic beads sorting system (Miltenyi Biotech), essentially as previously described (Hida et al., Cancer Res 64:8249-8255 (2004)). Briefly, TIB42 mouse lymphoma cells were injected into the dorsal lateral flanks of female beige nude mice. When tumors reached a diameter of […], they were excised, minced and then digested with collagenase II (Worthington Biochemical Corporation). Cell suspensions were than filtered using 100 μm to 40 μm meshes. CD31^+ cells were finally sorted using a FITC-CD31 antibody (BD Biosciences) according to the manufacturer's instructions. CD31+ cells were seeded in gelatin coated plates in the presence of EGM-2MV media (Cambrex). After 24 hs in culture CD31+ non-adherent cells were removed by washing several times with PBS.
For in vitro tube formation, TIB42-TAEC cells (passages 6-8) were starved for 5 hs in serum free medium. After this, cells were collected and resuspended in serum free medium supplemented with 5% BSA and treated with VEGF-A (100 ng/ml), Bv8 (200 ng/ml) or no addition (control). For specificity tests, Bv8, was incubated in the presence of anti-Bv8 Mabs (10 μg/ml). 5×10^5 cells were seeded in each well of a 24 well pre-coated with Matrigel™ (BD Biosciences) and tube formation was evaluated after 36 hours.

PKR1/EG-VEGFR1 = target: T1, PKR1/EG-VEGFR1 (Homo sapiens, UniProt Q8TCW9); assay: Bv8 bioactivity assay, GeneBLAzer NFAT-CHO cells transfected with PKR1/EG-VEGFR1; format: cell-based; conditions: Bv8 0.2-200 ng/ml; VEGF-A up to 200 ng/ml
T1 construct: host or cells: GeneBLAzer NFAT-CHO cells
Procedure: The GeneBLAzer® NFAT-CHO cells were obtained from Invitrogen Corporation (Carlsbad, Calif.). Cells were stably transfected with PKR1/EG-VEGFR1 and grown in DMEM (high glucose) containing 10% dialysed serum, 0.1 mM NEAA, 2 mM GlutaMax™ (Gibco), 1 mM sodium pyruvate, 10 μg/ml Zeocin, 500 μg/ml hygromycin. Cells were plated into 96-well Viewplate (Packard) with 2.5×10^4 in […] in 1% DMEM overnight at 5% CO2, 37° C. On the following day, cells were treated with various column fractions that were concentrated with Microcon Centrifugal Filter Devices (Ultracel YM-3) from Millipore. 0.2-0.02 ng/ml hBv8 (Peprotech Inc.) prepared in 1% DMEM was used as a positive control. One hour later, media was removed and replaced with […] Hank's solution containing 0.1% BSA and 6× loading buffer containing 1 mM CCF4 (Invitrogen Corporation). Plates were incubated for 1.5 hr at room temperature in the dark and read on Wallac plate reader at excitation wavelength of 410 nm and emission wavelength of 450/520 nm. Negative controls were cells with no ligand added and control media alone. CHO cells were stimulated with recombinant human Bv8 or pooled fractions for 1 hr before adding the β-lactamase substrate CCF4. To assess the specificity of the column fractions, anti-Bv8 antibodies 2B9 and 3F1 were added at […].

T1 sequence (Q8TCW9 whole entry): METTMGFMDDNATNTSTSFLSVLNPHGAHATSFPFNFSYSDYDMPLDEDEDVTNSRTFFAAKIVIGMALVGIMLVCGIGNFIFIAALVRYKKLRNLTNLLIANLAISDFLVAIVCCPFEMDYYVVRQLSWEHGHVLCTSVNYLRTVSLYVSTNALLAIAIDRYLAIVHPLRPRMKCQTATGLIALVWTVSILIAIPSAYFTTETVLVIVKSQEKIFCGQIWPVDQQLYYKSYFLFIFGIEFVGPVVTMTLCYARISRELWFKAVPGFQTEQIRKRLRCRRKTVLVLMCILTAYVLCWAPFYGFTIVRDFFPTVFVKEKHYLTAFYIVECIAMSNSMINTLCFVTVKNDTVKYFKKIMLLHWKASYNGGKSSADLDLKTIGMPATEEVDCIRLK

## GM-CSF: recombinant mouse or human granulocyte-macrophage-CSF (R&D Systems)
[1]
  regulation of PKR2/EG-VEGFR2 in human bone marrow: regulate PKR2/EG-VEGFR2 to a significant level
[1]; 4 hr incubation, average
  up-regulation of PKR2/EG-VEGFR2 expression in human neutrophils: 4 fold
Bv8 expression [2]
  Bv8 expression in HL-60: Neither G-CSF nor GM-CSF affected Bv8 expression
Bv8 expression [2]; any of the cell lines tested
  induction of Bv8 expression in leukemia cell lines: no significant induction
Bv8 expression [3]; BMMNCs and sorted subsets (FIG. 1 c&d)
  effect on Bv8 expression: no effect
Bv8 expression [4]
  induction of Bv8 expression in human neutrophils and whole bone marrow cells: ~2.5 fold
Bv8 expression [4]; 4 hr treatment
  inhibition of Bv8 expression in human monocytes: about 75%

## IL-8: recombinant human IL-8 (PeproTech)
Human neutrophils
  concentration required to stimulate neutrophil migration: 20 nM

## SDF-1α
Human neutrophils
  concentration required to stimulate neutrophil migration: 20 nM
Bv8 expression [4]
  Bv8 expression in monocytes and lymphocytes: significant stimulatory effect only on monocytes

## MCP-1: recombinant human MCP-1 (R&D Systems)
Human neutrophils
  effect on neutrophil migration: did not show any effect

## IL-1β: cytokine interleukin-1β
Bv8 expression [4]
  induction of Bv8 expression in human neutrophils and whole bone marrow cells: no stimulatory effect

## IL-6: cytokine interleukin-6
Bv8 expression [3]
  up-regulation of Bv8 in unsorted BMMNCs: did not show any significant stimulation
Bv8 expression [4]
  induction of Bv8 expression in human neutrophils and whole bone marrow cells: no stimulatory effect

## VEGF-A: recombinant vascular endothelial growth factor-A
p44/42 MAPK
  MAP kinase phosphorylation in TAECs: strong induction of MAP kinase phosphorylation
TIB42-TAEC cells
  tube formation in Matrigel: formed tubes
Human neutrophils
  effect on neutrophil migration: did not show any effect
PKR1/EG-VEGFR1
  stimulation of PKR1/EG-VEGFR1 transfected CHO cells: did not elicit any response

## SDF-1: recombinant mouse SDF-1 (R&D Systems)
Bv8 expression [3]
  up-regulation of Bv8 in unsorted BMMNCs: did not show any significant stimulation

## SCF: Stem Cell factor (Invitrogen Biosource)
Bv8 expression [4]
  induction of Bv8 expression in human neutrophils and whole bone marrow cells: no effect

B1: IL-10: recombinant human IL-10 (PeproTech) (protein, UniProt P22301 19-178, looked up)
Interleukin-10: SPGQGTQSENSCTHFPGNLPNMLRDLRDAFSRVKTFFQMKDQLDNLLLKESLLEDFKGYLGCQALSEMIQFYLEEVMPQAENQDPDIKAHVNSLGENLKTLRLRLRRCHRFLPCENKSKAVEQVKNAFNKLQEKGIYKAMSEFDIFINYIEAYMTMKIRN
Bv8 expression [4]
  Bv8 expression in monocytes and lymphocytes: up-regulated

B2: M-CSF: recombinant human M-CSF (R&D Systems) (protein, UniProt P09603 33-554, looked up)
Macrophage colony-stimulating …: EEVSEYCSHMIGSGHLQSLQRLIDSQMETSCQITFEFVDQEQLKDPVCYLKKAFLLVQDIMEDTMRFRDNTPNAIAIVQLQELSLRLKSCFTKDYEEHDKACVRTFYETPLQLLEKVKNVFNETKNLLDKDWNIFSKNCNNSFAECSSQDVVTKPDCNCLYPKAIPSSDPASVSPHQPLAPSMAPVAGLTWEDSEGTEGSSLLPGEQPLHTVDPGSAKQRPPRSTCQSFEPPETPVVKDSTIGGSPQPRPSVGAFNPGMEDILDSAMGTNWVPEEASGEASEIPVPQGTELSPSRPGGGSMQTEPARPSNFLSASSPLPASAKGQQPADVTGTALPRVGPVRPTGQDWNHTPQKTDHPSALLRDPPEPGSPRISSLRPQGLSNPSTLSAQPQLSRSHSSGSVLPLGELEGRRSTRDRRSPAEPEGGPASEGAARPLPRFNSVPLTDTGHERQSEGSFSPQLQESVFHLLVPSVILVLLAVGGLLFYRWRRRSHQEPQRADSPLEQPEGSPLTQDDRQVELPV
Bv8 expression [4]
  induction of Bv8 expression in human neutrophils and whole bone marrow cells: no effect
